{"source": "paper PMC5218480", "about": "(PLoS ONE, 2017)", "test_system": "MV-4-11 cells", "experiment": "Gene expression microarray analysis (Affymetrix PrimeView) and GSEA", "assay_type": "cell-based, human", "set-up": "RFU PODN (11730768_x_at) / Fold change /veh PODN (11730768_x_at) / RFU LINC00158 (11744669_a_at) / Fold change /veh LINC00158 (11744669_a_at) / RFU DUSP10 (11751237_a_at) / Fold change /veh DUSP10 (11751237_a_at) / RFU ID3 (11757404_x_at) / Fold change /veh ID3 (11757404_x_at) / RFU PLEKHG5 (11737974_s_at) / Fold change /veh PLEKHG5 (11737974_s_at) / RFU LRRC4B (11730491_at) / Fold change /veh LRRC4B (11730491_at) / RFU GIMAP4 (11747438_a_at) / Fold change /veh GIMAP4 (11747438_a_at) / RFU KRT8 (11758183_x_at) / Fold change /veh KRT8 (11758183_x_at) / RFU CNN1 (11734310_a_at) / Fold change /veh CNN1 (11734310_a_at) / RFU VPS37D (11726825_at) / Fold change /veh VPS37D (11726825_at) / RFU C10orf10 (11716522_x_at) / Fold change /veh C10orf10 (11716522_x_at) / RFU KIR2DL2 /// KIR2DL4 /// KIR2DL5A /// KIR2DL5B /// KIR2DS1 /// KIR2DS2 /// KIR2DS3 /// KIR2DS4 /// KIR3DL3 /// KIR3DL3 /// KIR3DS1 (11738374_at) / Fold change /veh KIR2DL2 /// KIR2DL4 /// KIR2DL5A /// KIR2DL5B /// KIR2DS1 /// KIR2DS2 /// KIR2DS3 /// KIR2DS4 /// KIR3DL3 /// KIR3DL3 /// KIR3DS1 (11738374_at) / RFU C1QL1 (11718748_at) / Fold change /veh C1QL1 (11718748_at) / RFU TMPRSS4 (11747572_a_at) / Fold change /veh TMPRSS4 (11747572_a_at) / RFU HAMP (11756126_x_at) / Fold change /veh HAMP (11756126_x_at) / RFU RNFT2 (11725882_a_at) / Fold change /veh RNFT2 (11725882_a_at) / RFU NR4A2 (11747474_a_at) / Fold change /veh NR4A2 (11747474_a_at) / RFU ABCC12 (11746883_a_at) / Fold change /veh ABCC12 (11746883_a_at) / RFU TMEM136 (11760407_x_at) / Fold change /veh TMEM136 (11760407_x_at) / RFU CLDN22 /// WWC2 (11732394_at) / Fold change /veh CLDN22 /// WWC2 (11732394_at) / RFU HLA-DPB1 (11760878_x_at) / Fold change /veh HLA-DPB1 (11760878_x_at) / RFU SPINT1 (11716480_a_at) / Fold change /veh SPINT1 (11716480_a_at) / RFU GAP43 (11754022_s_at) / Fold change /veh GAP43 (11754022_s_at) / RFU A4GNT (11735810_at) / Fold change /veh A4GNT (11735810_at) / RFU PRB3 (11715151_x_at) / Fold change /veh PRB3 (11715151_x_at) / RFU TUBB4B (11761932_at) / Fold change /veh TUBB4B (11761932_at) / RFU CAPN14 (11732068_a_at) / Fold change /veh CAPN14 (11732068_a_at) / RFU TMCC2 (11721928_a_at) / Fold change /veh TMCC2 (11721928_a_at) / RFU IRGQ (11745062_a_at) / Fold change /veh IRGQ (11745062_a_at) / RFU FAM174B (11720279_a_at) / Fold change /veh FAM174B (11720279_a_at) / RFU TMPRSS4 (11748680_a_at) / Fold change /veh TMPRSS4 (11748680_a_at) / RFU FAM212B (11763350_a_at) / Fold change /veh FAM212B (11763350_a_at) / RFU PLEKHG5 (11743358_a_at) / Fold change /veh PLEKHG5 (11743358_a_at) / RFU ZSCAN30 (11745921_a_at) / Fold change /veh ZSCAN30 (11745921_a_at) / RFU CMKLR1 (11741424_a_at) / Fold change /veh CMKLR1 (11741424_a_at) / RFU LOC101060620 /// MAPK8IP1 (11723275_at) / Fold change /veh LOC101060620 /// MAPK8IP1 (11723275_at) / RFU SPTSSB (11747773_x_at) / Fold change /veh SPTSSB (11747773_x_at) / RFU PRSS12 (11739890_at) / Fold change /veh PRSS12 (11739890_at) / RFU BIN1 (11741810_x_at) / Fold change /veh BIN1 (11741810_x_at) / RFU WNT11 (11732464_a_at) / Fold change /veh WNT11 (11732464_a_at) / RFU C10orf10 (11716521_a_at) / Fold change /veh C10orf10 (11716521_a_at) / RFU C5orf56 (11738089_at) / Fold change /veh C5orf56 (11738089_at) / RFU CYB561 (11721691_x_at) / Fold change /veh CYB561 (11721691_x_at) / RFU ANKRD19P (11752326_a_at) / Fold change /veh ANKRD19P (11752326_a_at) / RFU OR2T12 /// OR2T33 /// OR2T8 (11738714_s_at) / Fold change /veh OR2T12 /// OR2T33 /// OR2T8 (11738714_s_at) / RFU VCAN (11748164_a_at) / Fold change /veh VCAN (11748164_a_at) / RFU JSRP1 (11732532_at) / Fold change /veh JSRP1 (11732532_at) / RFU KRTAP10-11 (11738290_x_at) / Fold change /veh KRTAP10-11 (11738290_x_at) / RFU MYO3A (11730013_a_at) / Fold change /veh MYO3A (11730013_a_at) / RFU EBF3 (11725865_a_at) / Fold change /veh EBF3 (11725865_a_at) / RFU CAMK2N1 (11719241_x_at) / Fold change /veh CAMK2N1 (11719241_x_at) / RFU C5orf56 (11738088_a_at) / Fold change /veh C5orf56 (11738088_a_at) / RFU OLFML3 (11715873_a_at) / Fold change /veh OLFML3 (11715873_a_at) / RFU LOC100653217 /// NTM (11731650_a_at) / Fold change /veh LOC100653217 /// NTM (11731650_a_at) / RFU MAPK11 (11762145_a_at) / Fold change /veh MAPK11 (11762145_a_at) / RFU FIZ1 (11724087_x_at) / Fold change /veh FIZ1 (11724087_x_at) / RFU OASL (11726364_x_at) / Fold change /veh OASL (11726364_x_at) / RFU SOX15 (11748057_x_at) / Fold change /veh SOX15 (11748057_x_at) / RFU CD79A (11719716_a_at) / Fold change /veh CD79A (11719716_a_at) / RFU HIST1H1D (11736915_at) / Fold change /veh HIST1H1D (11736915_at) / RFU CASKIN2 (11723855_a_at) / Fold change /veh CASKIN2 (11723855_a_at) / RFU LOC730098 (11760151_x_at) / Fold change /veh LOC730098 (11760151_x_at) / RFU OR4N2 (11742367_at) / Fold change /veh OR4N2 (11742367_at) / RFU PRRT2 (11749266_a_at) / Fold change /veh PRRT2 (11749266_a_at) / RFU SNX32 (11753110_a_at) / Fold change /veh SNX32 (11753110_a_at) / RFU CDHR5 (11726645_a_at) / Fold change /veh CDHR5 (11726645_a_at) / RFU RCAN1 (11760418_a_at) / Fold change /veh RCAN1 (11760418_a_at) / RFU FAM167A (11723789_a_at) / Fold change /veh FAM167A (11723789_a_at) / RFU FAM26E (11764081_at) / Fold change /veh FAM26E (11764081_at) / RFU ISYNA1 (11749810_s_at) / Fold change /veh ISYNA1 (11749810_s_at) / RFU ACY1 (11761880_at) / Fold change /veh ACY1 (11761880_at) / RFU 11764098_at / Fold change /veh 11764098_at / RFU SAMD14 (11745864_x_at) / Fold change /veh SAMD14 (11745864_x_at) / RFU NPB (11741838_a_at) / Fold change /veh NPB (11741838_a_at) / RFU TMPRSS6 (11731388_a_at) / Fold change /veh TMPRSS6 (11731388_a_at) / RFU KRTAP10-2 (11738614_at) / Fold change /veh KRTAP10-2 (11738614_at) / RFU ARHGAP8 /// PRR5-ARHGAP8 (11727945_x_at) / Fold change /veh ARHGAP8 /// PRR5-ARHGAP8 (11727945_x_at) / RFU KRTAP5-7 /// NADSYN1 (11734609_at) / Fold change /veh KRTAP5-7 /// NADSYN1 (11734609_at) / RFU RASL12 (11751679_a_at) / Fold change /veh RASL12 (11751679_a_at) / RFU CDKN2B (11736163_a_at) / Fold change /veh CDKN2B (11736163_a_at) / RFU PRF1 (11729649_at) / Fold change /veh PRF1 (11729649_at) / RFU, ZNF638 /// ZNF638-IT1 / Fold change vs veh, ZNF638 /// ZNF638-IT1 / RFU, PANK3 / Fold change vs veh, PANK3 / RFU, SH3YL1 / Fold change vs veh, SH3YL1 / RFU, ZEB2 / Fold change vs veh, ZEB2 / RFU, NRIP1 / Fold change vs veh, NRIP1 / RFU, PTTG1IP / Fold change vs veh, PTTG1IP / RFU, CAPN2 / Fold change vs veh, CAPN2 / RFU, MED14 / Fold change vs veh, MED14 / RFU, SNORA58 / Fold change vs veh, SNORA58 / RFU, C1orf63 / Fold change vs veh, C1orf63 / RFU, LRRFIP1 / Fold change vs veh, LRRFIP1 / RFU, NDUFAF7 / Fold change vs veh, NDUFAF7 / RFU, SLC12A2 / Fold change vs veh, SLC12A2 / RFU, IBTK / Fold change vs veh, IBTK / RFU, ESF1 / Fold change vs veh, ESF1 / Fold change vs veh, TMEM50B / RFU, TAOK1 / Fold change vs veh, TAOK1 / RFU, ACBD3 / Fold change vs veh, ACBD3 / RFU, TMA16 / Fold change vs veh, TMA16 / RFU, RWDD3 / Fold change vs veh, RWDD3 / RFU, BCAT1 / Fold change vs veh, BCAT1 / RFU, EDEM3 / Fold change vs veh, EDEM3 / RFU, TMEM33 / Fold change vs veh, TMEM33 / RFU, WDR75 / Fold change vs veh, WDR75 / RFU, AHCTF1 / Fold change vs veh, AHCTF1 / RFU, TFRC / Fold change vs veh, TFRC / RFU, ZDHHC17 / Fold change vs veh, ZDHHC17 / RFU, NOM1 / Fold change vs veh, NOM1 / RFU, ARL8B / Fold change vs veh, ARL8B / RFU, ZBTB11 / Fold change vs veh, ZBTB11 / RFU, TAMM41 / Fold change vs veh, TAMM41 / RFU, KIAA1704 /// LOC100996395 / Fold change vs veh, KIAA1704 /// LOC100996395 / RFU, ING1 / Fold change vs veh, ING1 / RFU, TRMT61B / Fold change vs veh, TRMT61B / RFU, FUBP3 / Fold change vs veh, FUBP3 / RFU, TP53 / Fold change vs veh, TP53 / RFU, TNKS2 / Fold change vs veh, TNKS2 / RFU, ZFP14 / Fold change vs veh, ZFP14 / RFU, ACTR2 / Fold change vs veh, ACTR2 / RFU, PPP3R1 / Fold change vs veh, PPP3R1 / RFU, PIK3R1 / Fold change vs veh, PIK3R1 / RFU, HNRNPA1 / Fold change vs veh, HNRNPA1 / RFU, RNF170 / Fold change vs veh, RNF170 / RFU, ZNF28 / Fold change vs veh, ZNF28 / RFU, RNGTT / Fold change vs veh, RNGTT / RFU, OGT / Fold change vs veh, OGT / RFU, BRD1 / Fold change vs veh, BRD1 / RFU, MARS / Fold change vs veh, MARS / RFU, ZNF655 / Fold change vs veh, ZNF655 / RFU, FAHD1 / Fold change vs veh, FAHD1 / RFU, BDP1 / Fold change vs veh, BDP1 / RFU, LRRCC1 / Fold change vs veh, LRRCC1 / RFU, ARID1A / Fold change vs veh, ARID1A / RFU, ZNF146 / Fold change vs veh, ZNF146 / RFU, ZNF330 / Fold change vs veh, ZNF330 / RFU, GPN3 / Fold change vs veh, GPN3 / RFU, C9orf123 / Fold change vs veh, C9orf123 / RFU, N4BP2L2 / Fold change vs veh, N4BP2L2 / RFU, ARFIP1 / Fold change vs veh, ARFIP1 / RFU, FAM179B / Fold change vs veh, FAM179B / RFU, BCL10 / Fold change vs veh, BCL10 / RFU, UHRF1BP1L / Fold change vs veh, UHRF1BP1L / RFU, BET1 / Fold change vs veh, BET1 / RFU, CNOT2 / Fold change vs veh, CNOT2 / RFU, ZNF268 / Fold change vs veh, ZNF268 / Fold change vs veh, ZNF507 / RFU, DGCR2 / Fold change vs veh, DGCR2 / RFU, WDSUB1 / Fold change vs veh, WDSUB1 / Fold change vs veh, HSP90B1 /// MIR3652 / RFU, ADSS / Fold change vs veh, ADSS / RFU, GK / Fold change vs veh, GK / RFU, ZNF148 / Fold change vs veh, ZNF148 / RFU, TAF9 / Fold change vs veh, TAF9 / RFU, SLC1A5 / Fold change vs veh, SLC1A5 / RFU, SLMO2 / Fold change vs veh, SLMO2 / RFU, ABCC4 / Fold change vs veh, ABCC4 / RFU, LOC101060439 /// RAP1B / Fold change vs veh, LOC101060439 /// RAP1B / RFU, RFX7 / Fold change vs veh, RFX7 / RFU, GTPBP10 / Fold change vs veh, GTPBP10 / RFU, CNEP1R1 / Fold change vs veh, CNEP1R1 / RFU, BIVM-ERCC5 /// ERCC5 / Fold change vs veh, BIVM-ERCC5 /// ERCC5 / RFU, ILF3 / Fold change vs veh, ILF3 / RFU 11762660_at / Fold change /veh 11762660_at / RFU VCAN (11757783_s_at) / Fold change /veh VCAN (11757783_s_at) / RFU DDX43 (11728927_at) / Fold change /veh DDX43 (11728927_at) / RFU KRT8 (11758188_x_at) / Fold change /veh KRT8 (11758188_x_at) / RFU NKD1 (11759106_at) / Fold change /veh NKD1 (11759106_at) / RFU SRD5A1 (11742802_a_at) / Fold change /veh SRD5A1 (11742802_a_at) / RFU TPSAB1 /// TPSB2 (11721975_s_at) / Fold change /veh TPSAB1 /// TPSB2 (11721975_s_at) / RFU GSTM3 (11746129_a_at) / Fold change /veh GSTM3 (11746129_a_at) / RFU IL23R (11737362_x_at) / Fold change /veh IL23R (11737362_x_at) / RFU TMEM51 (11727254_a_at) / Fold change /veh TMEM51 (11727254_a_at) / RFU PIWIL2 (11732686_x_at) / Fold change /veh PIWIL2 (11732686_x_at) / RFU ORM1 (11744905_x_at) / Fold change /veh ORM1 (11744905_x_at) / RFU CCDC152 (11743942_at) / Fold change /veh CCDC152 (11743942_at) / RFU ECM1 (11717891_a_at) / Fold change /veh ECM1 (11717891_a_at) / RFU IL23R (11748794_a_at) / Fold change /veh IL23R (11748794_a_at) / RFU TNFAIP8L3 (11732012_x_at) / Fold change /veh TNFAIP8L3 (11732012_x_at) / RFU MBOAT4 (11741988_at) / Fold change /veh MBOAT4 (11741988_at) / RFU 11764193_at / Fold change /veh 11764193_at / RFU TMEM53 (11763286_at) / Fold change /veh TMEM53 (11763286_at) / RFU MAGEB2 (11727129_at) / Fold change /veh MAGEB2 (11727129_at) / RFU TMEM200A (11744735_a_at) / Fold change /veh TMEM200A (11744735_a_at) / RFU CCDC152 (11751479_a_at) / Fold change /veh CCDC152 (11751479_a_at) / RFU FAM211A (11726209_a_at) / Fold change /veh FAM211A (11726209_a_at) / RFU RGS16 (11746705_a_at) / Fold change /veh RGS16 (11746705_a_at) / RFU VCAN (11755009_s_at) / Fold change /veh VCAN (11755009_s_at) / RFU RHOB (11743442_s_at) / Fold change /veh RHOB (11743442_s_at) / RFU RGS16 (11720943_a_at) / Fold change /veh RGS16 (11720943_a_at) / RFU RGS16 (11720944_at) / Fold change /veh RGS16 (11720944_at) / RFU, VPS4B / Fold change vs veh, VPS4B / RFU, CREB1 / Fold change vs veh, CREB1 / RFU, DNAJC13 / Fold change vs veh, DNAJC13 / RFU, GNAQ / Fold change vs veh, GNAQ / RFU, CDK5R1 / Fold change vs veh, CDK5R1 / RFU, ZRANB3 / Fold change vs veh, ZRANB3 / RFU, CUL4A / Fold change vs veh, CUL4A / RFU, CCNY / Fold change vs veh, CCNY / RFU, UFL1 / Fold change vs veh, UFL1 / RFU, COG3 / Fold change vs veh, COG3 / RFU, DIAPH2 / Fold change vs veh, DIAPH2 / RFU, SKA2 / Fold change vs veh, SKA2 / RFU, AFF3 / Fold change vs veh, AFF3 / RFU, LMF1 / Fold change vs veh, LMF1 / RFU, IPO11 / Fold change vs veh, IPO11 / RFU, DFFB / Fold change vs veh, DFFB / RFU, FOXP1 / Fold change vs veh, FOXP1 / RFU, CARD8 / Fold change vs veh, CARD8 / RFU, STRN3 / Fold change vs veh, STRN3 / RFU, ADK / Fold change vs veh, ADK / RFU, RASSF2 / Fold change vs veh, RASSF2 / RFU, WIPF1 / Fold change vs veh, WIPF1 / RFU, LARP1B / Fold change vs veh, LARP1B / RFU, RASA1 / Fold change vs veh, RASA1 / RFU, RB1 / Fold change vs veh, RB1 / RFU, PPFIA1 / Fold change vs veh, PPFIA1 / RFU, MAT2A / Fold change vs veh, MAT2A / RFU, CCT5 / Fold change vs veh, CCT5 / RFU, WDR92 / Fold change vs veh, WDR92 / RFU, CUX1 / Fold change vs veh, CUX1 / RFU, TTC7A / Fold change vs veh, TTC7A / RFU, TMEM135 / Fold change vs veh, TMEM135 / RFU, DEPTOR / Fold change vs veh, DEPTOR / RFU, CPM / Fold change vs veh, CPM / RFU, DNAJB6 / Fold change vs veh, DNAJB6 / RFU, CACNA2D3 / Fold change vs veh, CACNA2D3 / RFU, DTX4 / Fold change vs veh, DTX4 / RFU, TFCP2 / Fold change vs veh, TFCP2 / RFU, GMCL1 /// GMCL1P1 / Fold change vs veh, GMCL1 /// GMCL1P1 / RFU, AEBP2 / Fold change vs veh, AEBP2 / RFU, SNHG1 /// SNORD22 /// SNORD25 /// SNORD26 /// SNORD27 /// SNORD28 /// SNORD29 /// SNORD31 / Fold change vs veh, SNHG1 /// SNORD22 /// SNORD25 /// SNORD26 /// SNORD27 /// SNORD28 /// SNORD29 /// SNORD31 / Fold change (Aza/veh), C12orf56 (ProbeSet 11735607_a_at) / Fold change (ACY-1035/veh), C12orf56 (ProbeSet 11735607_a_at) / Fold change (Aza/veh), FGFR1OP (ProbeSet 11751329_s_at) / Fold change (ACY-1035/veh), FGFR1OP (ProbeSet 11751329_s_at) / Fold change (Aza/veh), VPS36 (ProbeSet 11739960_a_at) / Fold change (ACY-1035/veh), VPS36 (ProbeSet 11739960_a_at) / RFU SYPL1 (11715823_x_at) / Fold change /veh SYPL1 (11715823_x_at) / RFU IGFBP7 (11715501_s_at) / Fold change /veh IGFBP7 (11715501_s_at) / RFU REEP3 (11722064_at) / Fold change /veh REEP3 (11722064_at) / RFU IGLL1 (11728026_x_at) / Fold change /veh IGLL1 (11728026_x_at): dose or concentration left out as unconfirmed", "details": "MV-4-11 cells, 48 hours"}
{"compound": "Nc1ccc(-c2cccs2)cc1NC(=O)c1ccc2c(c1)cc(C1CC1)n2CCN1CCOCC1", "note": "[ACY-1035]", "values": [{"measurement": "RFU ZSCAN30 (11745921_a_at)", "value": 7.88, "unit": "RFU"}]}
